Measured values taken from the supplement of paper PMC10307832.

Tests used:
Assay in all cases: relative viability (nuclei count vs DMSO), 5 days (fraction); higher = more cells survive
[1] = compound: OCc1c[nH]c2ccccc12 [Indole-3-carbinol] + N=C(N)NC(=N)NCCc1ccccc1 [Phenformin] (partner 250 µM)
Method in brief: (§1)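 A single step with final 0.05% Triton X-100, 1% formaldehyde and 1 ug/ml Hoechst fixed the cells and stained nuclei 5 days after treatment. Lung cancer cell lines in 1536-well plates had been treated by pin tool the day after seeding with one drug alone or a fixed anchor-drug dose plus five library-drug doses (not always all listed) in √10 steps, and nuclei were counted on 4× images. Relative viability is the ratio of nuclei in treated wells to nuclei in vehicle wells, taken as the median of duplicate plates.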

[2] = compound: OCc1c[nH]c2ccccc12 [Indole-3-carbinol] + CS(=O)(=O)CCNCc1ccc(-c2ccc3ncnc(Nc4ccc(OCc5cccc(F)c5)c(Cl)c4)c3c2)o1 [Lapatinib] (partner 2 µM)
Method in brief: as §1

[3] = compound: OCc1c[nH]c2ccccc12 [Indole-3-carbinol] + CS(=O)(=O)N1CCN(Cc2cc3nc(-c4cccc5[nH]ncc45)nc(N4CCOCC4)c3s2)CC1 [Pictilisib] (partner 1 µM)
Method in brief: as §1

[4] = compound: OCc1c[nH]c2ccccc12 [Indole-3-carbinol] + Cc1nc(Nc2ncc(C(=O)Nc3c(C)cccc3Cl)s2)cc(N2CCN(CCO)CC2)n1 [Dasatinib] (partner 0.075 µM)
Method in brief: as §1

[5] = compound: OCc1c[nH]c2ccccc12 [Indole-3-carbinol] + Cc1nc(NC(=O)N2CCC[C@H]2C(N)=O)sc1-c1ccnc(C(C)(C)C(F)(F)F)c1 [Alpelisib] (partner 2 µM)
Method in brief: as §1

| Cell Line | relative viability ([1]; first compound 0.253 µM) | relative viability ([1]; first compound 0.8 µM) | relative viability ([1]; first compound 2.53 µM) | relative viability ([1]; first compound 8 µM) | relative viability ([2]; first compound 0.253 µM) | relative viability ([2]; first compound 0.8 µM) | relative viability ([2]; first compound 2.53 µM) | relative viability ([2]; first compound 8 µM) | relative viability ([3]; first compound 0.253 µM) | relative viability ([3]; first compound 0.8 µM) | relative viability ([3]; first compound 2.53 µM) | relative viability ([3]; first compound 8 µM) | relative viability ([4]; first compound 0.253 µM) | relative viability ([4]; first compound 0.8 µM) | relative viability ([4]; first compound 2.53 µM) | relative viability ([4]; first compound 8 µM) | relative viability ([5]; first compound 0.253 µM) | relative viability ([5]; first compound 0.8 µM) | relative viability ([5]; first compound 2.53 µM) | relative viability ([5]; first compound 8 µM) |
| --- | --- | --- | --- | --- | --- | --- | --- | --- | --- | --- | --- | --- | --- | --- | --- | --- | --- | --- | --- | --- |
| HCC-366 | 0.645 | 0.61 | 0.696 | 0.565 | 1.07 | 0.867 | 0.985 | 0.987 | 0.175 | 0.111 | 0.18 | 0.18 | 0.626 | 0.721 | 0.724 | 0.601 | 0.505 | 0.264 | 0.48 | 0.381 |
| HCC-827 | 0.389 | 0.383 | 0.417 | 0.364 | 0.202 | 0.18 | 0.227 | 0.191 | 0.926 | 1.04 | 0.841 | 1.07 | 0.338 | 0.315 | 0.316 | 0.357 | 0.911 | 1 | 0.99 | 0.985 |
| HOP-62 | 0.724 | 0.654 | 0.671 | 0.628 | 0.957 | 0.874 | 1.11 | 0.966 | 0.771 | 0.806 | 1.01 | 0.731 | 0.701 | 0.693 | 0.719 | 0.651 | 1.01 | 0.795 | 0.867 | 0.929 |
| IA-LM |  |  |  |  | 0.842 | 0.902 | 0.837 | 0.783 | 0.348 | 0.291 | 0.362 | 0.237 |  |  |  |  | 0.672 | 0.866 | 0.77 | 0.713 |
| LC-2-ad | 0.597 | 0.525 | 0.638 | 0.588 | 0.977 | 0.974 | 0.893 | 0.938 | 0.439 | 0.502 | 0.466 | 0.464 | 0.657 | 0.735 | 0.589 | 0.595 | 0.91 | 0.874 | 0.945 | 0.856 |
| LCLC-97TM1 | 0.477 | 0.435 | 0.425 | 0.443 | 0.599 | 0.935 | 0.911 | 0.582 | 0.139 | 0.224 | 0.177 | 0.223 | 0.835 | 0.949 | 0.944 | 0.908 | 0.203 | 0.277 | 0.242 | 0.227 |
| LCLC-103H | 0.317 | 0.339 | 0.371 | 0.337 |  |  |  |  | 0.546 | 0.537 | 0.702 | 0.476 | 0.416 | 0.489 | 0.428 | 0.441 | 0.869 | 0.882 | 0.923 | 0.899 |
| LK-2 | 0.245 | 0.381 | 0.606 | 0.563 | 0.883 | 0.864 | 1.13 | 1.04 | 0.475 | 0.46 | 0.977 | 0.628 | 0.262 | 0.297 | 0.299 | 0.273 | 1.11 | 1.02 | 1.25 | 1.05 |
| LOU-NH91 | 0.783 | 0.708 | 0.725 | 0.699 | 0.762 | 0.706 | 0.748 | 0.771 | 0.488 | 0.472 | 0.539 | 0.57 | 0.621 | 0.573 | 0.585 | 0.535 | 0.746 | 0.706 | 0.703 | 0.728 |
| LU99A | 0.943 | 0.869 | 0.816 | 0.871 | 0.893 | 0.968 | 0.973 | 0.89 | 0.318 | 0.367 | 0.302 | 0.35 | 0.504 | 0.587 | 0.515 | 0.485 | 0.508 | 0.548 | 0.582 | 0.451 |
| LXF-289 | 0.527 | 0.553 | 0.488 | 0.513 | 0.919 | 0.946 | 0.881 | 0.841 | 0.837 | 0.814 | 0.807 | 0.747 | 0.256 | 0.229 | 0.258 | 0.203 | 1.03 | 1.1 | 1.09 | 0.99 |
| NCI-H23 | 0.773 | 0.815 | 0.831 | 0.77 | 1.09 | 1.1 | 1.06 | 0.9 | 0.434 | 0.485 | 0.581 | 0.451 | 0.793 | 1.01 | 0.936 | 0.675 | 0.618 | 0.723 | 0.637 | 0.629 |
| NCI-H322M | 0.685 | 0.764 | 0.746 | 0.761 | 0.601 | 0.537 | 0.575 | 0.549 | 0.45 | 0.487 | 0.486 | 0.502 | 0.239 | 0.245 | 0.237 | 0.255 | 0.774 | 0.82 | 0.86 | 0.8 |
| NCI-H358 | 0.383 | 0.33 | 0.345 | 0.325 | 0.519 | 0.422 | 0.42 | 0.423 | 0.408 | 0.354 | 0.344 | 0.32 | 0.146 | 0.204 | 0.172 | 0.189 | 0.773 | 0.777 | 0.992 | 0.959 |
| NCI-H441 | 0.883 | 1.01 | 0.955 | 0.797 |  |  |  |  | 0.479 | 0.491 | 0.539 | 0.508 | 0.606 | 0.598 | 0.711 | 0.643 | 0.796 | 0.831 | 0.794 | 0.736 |
| NCI-H522 | 0.621 | 0.661 | 0.724 | 0.671 |  |  |  |  |  |  |  |  | 0.806 | 0.961 | 0.818 | 0.796 |  |  |  |  |
| NCI-H1650 | 0.42 |  | 0.462 | 0.356 | 0.892 | 0.561 | 0.875 | 0.716 | 0.521 | 0.399 | 0.547 | 0.6 | 0.335 |  | 0.324 | 0.304 |  |  |  |  |
| NCI-H1703 |  |  |  |  | 1.25 | 1.36 | 0.945 | 0.903 |  | 0.24 | 0.26 | 0.253 |  |  |  |  | 0.3 | 0.4 | 0.322 | 0.332 |
| SW 900 | 0.81 | 0.634 | 0.576 | 0.455 |  |  |  |  |  |  |  |  | 0.837 | 0.79 | 0.438 | 0.586 |  |  |  |  |
